Values quoted from earlier work, collected in patent EP4454482A1, “PREPARATIONS COMPRISING OLEANOL GLYCOSIDES” (Analyticon Discovery GmbH, priority 2023, dated 2024).

Settings: water (20° dH) at 20 °C; solid active agent

- solubility in water: less than 5 g/L
SMILES: Nc1nc2c(ncn2COCCO)c(=O)[nH]1 [Acyclovir, 2-Amino-1,9-dihydro-9-((2-hydroxyethoxy)methyl)-6H-Purin-6-one]
